According to the NIST ThermoML archive (doi:10.1007/s10765-013-1491-2):
Where “and” joins values, the source holds several entries; their conditions need not be identical. Equal entries are not always repeated. ± gives the expanded uncertainty stated by the source.

Settings: 101.33 kPa, Liquid, Alternating current cell with electrodes

CCCCCC[n+]1ccn(C)c1.O=S(=O)([N-]S(=O)(=O)C(F)(F)F)C(F)(F)F
Settings | electrical conductivity [S/m]
288.27 K | 0.136
293.13 K | 0.172 ± 0.0069
298.1 K | 0.216 ± 0.0087
303.18 K | 0.268 ± 0.011
308.13 K | 0.326 ± 0.013
313.08 K | 0.391 ± 0.016
323.11 K | 0.544 ± 0.022
333.01 K | 0.725 ± 0.029

CCn1cc[n+](C)c1.O=S(=O)([N-]S(=O)(=O)C(F)(F)F)C(F)(F)F
Settings | electrical conductivity
288.16 K | 0.644 S/m and 0.645 S/m
293.12 K | 0.768 ± 0.031 S/m
298.08 K | 0.905 ± 0.036 S/m
303.15 K | 1.06 ± 0.043 S/m
308.11 K | 1.22 ± 0.049 S/m
313.06 K | 1.39 ± 0.056 S/m
323.07 K | 1.77 ± 0.071 S/m
333.11 K | 2.2 ± 0.088 S/m

CCOS(=O)(=O)[O-].CCn1cc[n+](C)c1 [1-ethyl-3-methylimidazolium ethyl sulfate]
Settings | electrical conductivity [S/m]
288.15 K | 0.235 ± 0.0095
288.16 K | 0.235 ± 0.0095
293.12 K | 0.302 ± 0.012
298.08 K | 0.381 ± 0.015
303.15 K | 0.473 ± 0.019
308.11 K | 0.576 ± 0.023
313.07 K | 0.69 ± 0.028
323.08 K | 0.961 ± 0.038
333.11 K | 1.28 ± 0.051

CCn1cc[n+](C)c1.O=S(=O)([O-])C(F)(F)F [1-ethyl-3-methylimidazolium trifluoromethanesulfonate]
Settings | electrical conductivity [S/m]
288.15 K | 0.623 ± 0.037
288.16 K | 0.629 ± 0.038
293.11 K | 0.747 ± 0.045
298.16 K | 0.886 ± 0.053
303.12 K | 1.04 ± 0.062
308.08 K | 1.2 ± 0.072
313.16 K | 1.39 ± 0.083
323.06 K | 1.78 ± 0.11
333.1 K | 2.24 ± 0.13
